This note sets out measurements from patent US6486185B1, “3-heteroarylidene-2-indolinone protein kinase inhibitors” (Sugen, Inc., priority 1997, dated 2002).

Some results are limits rather than exact numbers.

The target in this assay is T1, IGF-1R (Homo sapiens, UniProt P08069).
T1 construct: expressed in transfected cells; host or cells: NIH3T3 (3T3/IGF-1R)
T1 sequence (P08069 31-1367, species assumed): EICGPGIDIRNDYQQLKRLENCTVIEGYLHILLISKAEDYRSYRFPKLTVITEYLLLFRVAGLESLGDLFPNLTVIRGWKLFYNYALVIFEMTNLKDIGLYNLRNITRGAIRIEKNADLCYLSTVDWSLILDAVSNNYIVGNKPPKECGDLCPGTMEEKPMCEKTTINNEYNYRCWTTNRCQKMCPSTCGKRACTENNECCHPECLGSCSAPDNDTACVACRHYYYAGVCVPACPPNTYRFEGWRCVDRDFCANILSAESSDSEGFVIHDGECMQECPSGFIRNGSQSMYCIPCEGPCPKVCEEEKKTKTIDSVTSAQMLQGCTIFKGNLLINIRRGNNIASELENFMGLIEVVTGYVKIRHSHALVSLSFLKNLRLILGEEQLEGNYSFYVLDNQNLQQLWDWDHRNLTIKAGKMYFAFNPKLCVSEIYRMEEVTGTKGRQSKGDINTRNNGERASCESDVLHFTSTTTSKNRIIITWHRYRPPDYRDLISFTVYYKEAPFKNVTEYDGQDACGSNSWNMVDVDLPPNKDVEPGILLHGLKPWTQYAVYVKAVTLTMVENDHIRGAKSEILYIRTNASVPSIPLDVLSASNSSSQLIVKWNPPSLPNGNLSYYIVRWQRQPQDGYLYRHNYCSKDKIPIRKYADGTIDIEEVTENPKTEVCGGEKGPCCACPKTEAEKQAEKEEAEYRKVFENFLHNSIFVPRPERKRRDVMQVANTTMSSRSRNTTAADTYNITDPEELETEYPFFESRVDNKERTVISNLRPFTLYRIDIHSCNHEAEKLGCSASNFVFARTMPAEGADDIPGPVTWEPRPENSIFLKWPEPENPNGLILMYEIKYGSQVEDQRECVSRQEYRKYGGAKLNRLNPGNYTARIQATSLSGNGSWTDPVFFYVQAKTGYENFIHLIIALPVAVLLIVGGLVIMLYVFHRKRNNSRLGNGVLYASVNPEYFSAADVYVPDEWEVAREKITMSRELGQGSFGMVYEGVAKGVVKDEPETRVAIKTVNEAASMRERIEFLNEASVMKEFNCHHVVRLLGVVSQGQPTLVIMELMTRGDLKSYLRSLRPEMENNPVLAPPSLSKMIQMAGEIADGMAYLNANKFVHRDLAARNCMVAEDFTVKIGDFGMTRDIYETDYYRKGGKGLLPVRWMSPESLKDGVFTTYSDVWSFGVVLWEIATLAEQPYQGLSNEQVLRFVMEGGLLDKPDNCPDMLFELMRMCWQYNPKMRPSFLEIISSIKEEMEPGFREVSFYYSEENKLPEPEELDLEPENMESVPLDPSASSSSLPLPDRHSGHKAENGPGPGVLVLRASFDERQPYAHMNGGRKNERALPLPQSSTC
The assay is described as follows: IGF-I receptor ELISA in 3T3/IGF-1R cells. The note with it: 50% inhibition of PTK activity over control. The assay is classed as cell-based. Here is the method: The cellular/catalytic assays described herein are performed in an ELISA format. The general procedure is a follows: a compound is introduced to cells expressing the test kinase, either naturally or recombinantly, for some period of time after which, if the test kinase is a receptor, a ligand known to activate the receptor's activity is added. The cells are lysed and the lysate is transferred to the wells of an ELISA plate previously coated with a specific antibody recognizing the substrate of the enzymatic phosphorylation reaction. Non-substrate components of the cell lysate are washed away and the amount of phosphorylation on the substrate is detected with an antibody specifically recognizing phosphotyrosine compared with control cells that were not contacted with a test compound.
The following protocol may be used to measure phosphotyrosine level on IGF-I receptor, which indicates IGF-I receptor tyrosine kinase activity.
The following materials and reagents are used:
a. The cell line used in this assay is 3T3/IGF-1R, a cell line genetically engineered to overexpresses IGF-1 receptor.
b. NIH3T3/IGF-1R is grown in an incubator with 5% CO2 at 37° C. The growth media is DMEM+10% FBS (heat inactivated)+2 mM L-glutamine.
c. Affinity purified anti-IGF-1R antibody 17-69.
e. Blocking Buffer: TBST plus 5% Milk (Carnation Instant Non-Fat Dry Milk).
Stock solution of TBS (10×) is prepared, and Triton X-100 is added to the buffer during dilution.
Stock solution (5×) is prepared and kept at 4° C.
h. EDTA/HCl: 0.5 M pH 7.0 (NaOH) as 100×stock.
i. Na3VO4: 0.5 M as 100×stock and aliquots are kept in −80° C.
k. Insulin-like growth factor-1 from Promega (Cat# G5111).
l. Rabbit polyclonal anti-phosphotyrosine antiserum.
m. Goat anti-rabbit IgG, POD conjugate (detection antibody), Tago (Cat. No. 4520, Lot No. 1802): Tago, Inc., Burlingame, Calif.
n. ABTS (2,2′-azinobis(3-ethylbenzthiazolinesulfonic acid)) solution:
ABTS solution should be kept in dark and 4° C. The solution should be discarded when it turns green.
o. Hydrogen Peroxide: 30% solution is kept in the dark and at 4° C.
All the following steps are conducted at room temperature unless it is specifically indicated. All ELISA plate washings are performed by rinsing the plate with tap water three times, followed by one TBST rinse. Pat plate dry with paper towels.
1. The cells, grown in tissue culture dish (Corning 25020-100) to 80-90% confluence, are harvested with Trypsin-EDTA (0.25%, 0.5 mL/D-100, GIBCO).
2. Resuspend the cells in fresh DMEM+10% FBS+2 mM L-Glutamine, and transfer to 96-well tissue culture plate (Corning, 25806-96) at 20,000 cells/well (100 μL/well). Incubate for 1 day then replace medium to serum-free medium (90/μL) and incubate in 5% CO2 and 37° C. overnight.
B. ELISA Plate Coating and Blocking:
1. Coat the ELISA plate (Corning 25805-96) with Anti-IGF-1R Antibody at 0.5 μg/well in 100 μL PBS at least 2 hours.
2. Remove the coating solution, and replace with 100 μL Blocking Buffer, and shake for 30 minutes. Remove the blocking buffer and wash the plate just before adding lysate.
1. The drugs are tested in serum-free condition.
2. Dilute drug stock (in 100% DMSO) 1:10 with DMEM in 96-well poly-propylene plate, and transfer 10 μL/well of this solution to the cells to achieve final drug dilution 1:100, and final DMSO concentration of 1.0%. Incubate the cells in 5% CO2 at 37° C. for 2 hours.
3. Prepare fresh cell lysis buffer (HNTG*)
4. After drug incubation for two hours, transfer 10 μL/well of 200 nM IGF-1 Ligand in PBS to the cells (Final Conc.=20 nM), and incubate at 5% CO2 at 37° C. for 10 minutes.
5. Remove media and add 100 μL/well HNTG* and shake for 10 minutes. Look at cells under microscope to see if they are adequately lysed.
6. Use a 12-channel pipette to scrape the cells from the plate, and homogenize the lysate.by repeated aspiration and dispensing. Transfer all the lysate to the antibody coated ELISA plate, and shake for 1 hour.
7. […]
(In an ELISA, binding on a coated surface is turned into a signal by an enzyme label.)
In the case of `Cc1c[nH]c(C=C2C(=O)Nc3ccccc32)c1CCC(=O)O` [3-[3-(2-carboxyethyl-4-methylpyrrol-2-methylidenyl]-2-indolinone], the half-maximal inhibitory concentration (IC50) was over 100 µM.
As for `CCOC(=O)c1c(C)[nH]c(C=C2C(=O)Nc3ccc(Br)cc32)c1C` [3-(2,4-dimethyl-3-ethoxycarbonylpyrrol-5-methylidenyl)-5-bromo-2-indolinone], the figure is over 100 µM.
The value for `CC(=O)c1[nH]c(C=C2C(=O)Nc3ccccc32)c(C)c1C` [3-(2-acetyl-3,4-dimethylpyrrol-5-methylidenyl)-2-indolinone] was over 100 µM; that for `COC(=O)Cc1c(Cl)[nH]c(C=C2C(=O)Nc3ccccc32)c1C(=O)OC` [3-(2-chloro-4-methoxycarbonyl-3-methoxycarbonylmethylpyrrol-5-methylidenyl)-2-indolinone] was over 50 µM; that for `CCOC(=O)CCc1c(C(=O)OCC)[nH]c(C=C2C(=O)Nc3ccccc32)c1CC(=O)OCC` [3-[2-ethoxycarbonyl-3-(2-ethoxycarbonylethyl)-4-ethoxycarbonylmethyl)pyrrol-5-methylidenyl)-2-indolinone] was over 10 µM.
With `CCOC(=O)c1[nH]c(C=C2C(=O)Nc3ccccc32)c(C(C)=O)c1C` [3-(4-acetyl-2-ethoxycarbonyl-3-methylpyrrol-5-methylidenyl)-2-indolinone], the half-maximal inhibitory concentration (IC50) was over 10 µM.
For the molecule `CCOC(=O)c1c[nH]c(C=C2C(=O)Nc3ccccc32)c1C` [3-(4-ethoxycarbonyl-3-methylpyrrol-2-methylidenyl)-2-indolinone], the 50% inhibitory concentration (IC50) is over 100 µM.
Regarding `COC(=O)CCc1c[nH]c(C=C2C(=O)Nc3cc(OC)c(OC)cc32)c1C` [3-[4-(2-methoxycarbonylethyl)-3-methylpyrrol-2-methylidenyl]-5,6-dimethoxy-2-indolinone], the half-inhibitory concentration (IC50) was over 50 µM.
`COC(=O)CCc1c[nH]c(C=C2C(=O)Nc3ccccc32)c1C` [3-[4-(2-methoxycarbonylethyl-3-methylpyrrol-2-methylidenyl]-2-indolinone] came in with an IC50 of over 100 µM.
Take `CCOC(=O)c1c(C)[nH]c(C=C2C(=O)Nc3ccc(NC(=O)c4ccc(C(=O)OC)cc4)cc32)c1C` [3-(2,4-dimethyl-3-ethoxycarbonylpyrrol-5-methylidenyl)-5-(4-methoxycarbonylbenzamido)-2-indolinone]: the IC50 is over 10 µM.

What is called IC50 is the midpoint of a concentration-inhibition curve.
